The assay has as its system L1210 leukemia ip in BDF1 mice, survival T/C. The experiment in a line: NCI In Vivo Anticancer Drug Screen. Data for tumor model L1210 Leukemia (intraperitoneal) in B6D2F1 (BDF1) mice. The following applies: endpoint: mean survival time, higher = longer survival. A digest of the protocol: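 Ratio derived from survival: compound-dosed mice over vehicle-dosed mice, all bearing a transplantable tumor.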

The mark [1] stands for this setting: dose: 100.0 mg/kg/injection, schedule: Q01DX001 (ip), vehicle: saline with Tween-80.
[2] abbreviates: dose: 100.0 mg/kg/injection, schedule: Q01DX009 (ip), vehicle: saline with Tween-80.
Setting [3] is: dose: 100.0 mg/kg/injection, schedule: Q04DX002 (ip), vehicle: Klucel (hydroxypropylcellulose) (HPC).
The mark [4] stands for this setting: dose: 200.0 mg/kg/injection, schedule: Q01DX001 (ip), vehicle: saline with Tween-80.
Setting [5] is: dose: 200.0 mg/kg/injection, schedule: Q01DX009 (ip), vehicle: saline with Tween-80.
Setting [6] is: dose: 200.0 mg/kg/injection, schedule: Q04DX002 (ip), vehicle: Klucel (hydroxypropylcellulose) (HPC).
Where [7] appears, read: dose: 400.0 mg/kg/injection, schedule: Q04DX002 (ip), vehicle: Klucel (hydroxypropylcellulose) (HPC).
Setting [8] is: dose: 100.0 mg/kg/injection, schedule: Q01DX009 (ip), vehicle: Klucel (hydroxypropylcellulose) (HPC).
Setting [9] is: dose: 200.0 mg/kg/injection, schedule: Q01DX009 (ip), vehicle: Klucel (hydroxypropylcellulose) (HPC).
The mark [10] stands for this setting: dose: 100.0 mg/kg/injection, schedule: Q04DX003 (ip), vehicle: saline with Tween-80.
The mark [11] stands for this setting: dose: 200.0 mg/kg/injection, schedule: Q04DX003 (ip), vehicle: saline with Tween-80.
Where [12] appears, read: dose: 400.0 mg/kg/injection, schedule: Q04DX003 (ip), vehicle: saline with Tween-80.
The mark [13] stands for this setting: dose: 50.0 mg/kg/injection, schedule: Q01DX009 (ip), vehicle: saline.
Where [14] appears, read: dose: 100.0 mg/kg/injection, schedule: Q01DX009 (ip), vehicle: saline.
[15] abbreviates: dose: 100.0 mg/kg/injection, schedule: Q04DX003 (ip), vehicle: saline.
Setting [16] is: dose: 200.0 mg/kg/injection, schedule: Q01DX009 (ip), vehicle: saline.
Where [17] appears, read: dose: 100.0 mg/kg/injection, schedule: Q04DX003 (ip), vehicle: Klucel (hydroxypropylcellulose) (HPC).
Where [18] appears, read: dose: 200.0 mg/kg/injection, schedule: Q04DX003 (ip), vehicle: Klucel (hydroxypropylcellulose) (HPC).
The mark [19] stands for this setting: dose: 400.0 mg/kg/injection, schedule: Q04DX003 (ip), vehicle: Klucel (hydroxypropylcellulose) (HPC).

Values joined by “and” are separate entries in the source; they are usually repeats but may differ in a detail not shown here. Equal values may be shown once. Inconclusive results and toxic doses are left out.

Consider `Cc1cccc(OC(=O)Nc2ccc(Cl)cc2)c1`, for which the T/C reads like this: under setting [1], 93 % of control; under setting [2], 89 % of control; under setting [3], 88 % of control; (dose: 100.0 mg/kg/injection, schedule: Q04DX002 (ip), vehicle: saline with Tween-80) 100 % of control and 92 % of control; under setting [4], 90 % of control; under setting [5], 93 % of control. In addition, the T/C was 98 % of control under setting [6]; 107 % of control and 90 % of control (dose: 200.0 mg/kg/injection, schedule: Q04DX002 (ip), vehicle: saline with Tween-80); 90 % of control (dose: 400.0 mg/kg/injection, schedule: Q01DX001 (ip), vehicle: saline with Tween-80); 109 % of control under setting [7]; 113 % of control and 114 % of control (dose: 400.0 mg/kg/injection, schedule: Q04DX002 (ip), vehicle: saline with Tween-80).
`CC(C)(C#N)NC(=O)NC(C)(C)C#N`: the T/C is 101 % of control (dose: 50.0 mg/kg/injection, schedule: Q01DX009 (ip), vehicle: saline with Tween-80); 97 % of control under setting [2]; 97 % of control under setting [5].
Turning to `CCCCn1nnc2ccc([N+](=O)[O-])cc2c1=O`, the T/C is, setting by setting: under setting [8], 92 % of control; under setting [9], 87 % of control.
On to `CC1=C(C)CP(C)(=O)C1`, for which the T/C was 93 % of control under setting [10], 91 % of control under setting [11] and 86 % of control under setting [12].
Turning to `NC(N)=N/N=C(\C=N\N=C(N)N)c1ccc(-c2ccc(C(/C=N/N=C(N)N)=N\N=C(N)N)cc2)cc1`, the T/C runs as follows: (dose: 15.0 mg/kg/injection, schedule: Q01DX Z (oral), vehicle: saline) 102 % of control; (dose: 30.0 mg/kg/injection, schedule: Q01DX Z (oral), vehicle: saline) 96 % of control; (dose: 60.0 mg/kg/injection, schedule: Q01DX Z (oral), vehicle: saline) 98 % of control; (dose: 120.0 mg/kg/injection, schedule: Q01DX Z (oral), vehicle: saline) 100 % of control.
Turning to `O=c1ccn2ccccc2n1`, the T/C runs as follows: under setting [13], 101 % of control; under setting [14], 99 % of control; under setting [15], 103 % of control; under setting [16], 98 % of control; (dose: 200.0 mg/kg/injection, schedule: Q04DX003 (ip), vehicle: saline) 109 % of control.
Turning to `CC1(C)N=C(N)N=C(N)N1c1ccc(OCc2ccc(C(=O)Nc3cccc(S(=O)(=O)F)c3)cc2)c(Cl)c1`, the T/C is 100 % of control (dose: 25.0 mg/kg/injection, schedule: Q01DX009 (ip), vehicle: Klucel (hydroxypropylcellulose) (HPC)); 124 % of control under setting [17]; 86 % of control under setting [9]; 162 % of control and 168 % of control under setting [18]; 105 % of control and 106 % of control and 116 % of control under setting [19].
On to `COC1=CC(=O)C(C2CC(=O)c3c(O)cc(OC4OC(COC5OC(C)C(O)C(O)C5O)C(O)C(O)C4O)cc3O2)=CC1=O` (centres undefined), for which the T/C runs as follows: under setting [14], 95 % of control; under setting [10], 103 % of control; under setting [16], 97 % of control; under setting [11], 108 % of control; (dose: 400.0 mg/kg/injection, schedule: Q01DX009 (ip), vehicle: saline) 88 % of control; under setting [12], 101 % of control.
Turning to `O=C(NC(CSC(=O)c1ccccc1)C(=O)O)OCc1ccccc1` (centres undefined), the T/C runs as follows: under setting [8], 104 % of control; under setting [17], 101 % of control; under setting [9], 93 % of control; under setting [18], 95 % of control; under setting [19], 95 % of control.
Consider `CCOC(=O)CC(=O)CC(C)C`, for which the T/C is, setting by setting: under setting [17], 101 % of control; under setting [18], 97 % of control; under setting [19], 88 % of control.
As to `CC/C(=N/N=C(N)N)C(=O)O`, the T/C was 102 % of control (dose: 15.0 mg/kg/injection, schedule: Q01DX Z (ip), vehicle: carboxymethylcellulose (CMC)); 95 % of control (dose: 30.0 mg/kg/injection, schedule: Q01DX Z (ip), vehicle: carboxymethylcellulose (CMC)); 103 % of control and 106 % of control (dose: 60.0 mg/kg/injection, schedule: Q01DX Z (ip), vehicle: carboxymethylcellulose (CMC)); 96 % of control and 98 % of control (dose: 120.0 mg/kg/injection, schedule: Q01DX Z (ip), vehicle: carboxymethylcellulose (CMC)); 100 % of control (dose: 240.0 mg/kg/injection, schedule: Q01DX Z (ip), vehicle: carboxymethylcellulose (CMC)); 102 % of control (dose: 480.0 mg/kg/injection, schedule: Q01DX Z (ip), vehicle: carboxymethylcellulose (CMC)).
In the case of `O=C(O)CC(CC(=O)O)n1cccc1`, the T/C reads like this: (dose: 75.0 mg/kg/injection, schedule: Q01DX001 (ip), vehicle: acetone) 96 % of control; (dose: 150.0 mg/kg/injection, schedule: Q01DX001 (ip), vehicle: acetone) 91 % of control; (dose: 300.0 mg/kg/injection, schedule: Q01DX001 (ip), vehicle: acetone) 94 % of control.
Take `ClCCCNCc1ccccc1`: the T/C is 111 % of control (dose: 25.0 mg/kg/injection, schedule: Q01DX009 (ip), vehicle: saline); 97 % of control under setting [13]; 97 % of control under setting [14]; 94 % of control under setting [15].
In the case of `CCOc1ccc(Cl)cc1`, the T/C (dose: 75.0 mg/kg/injection, schedule: Q01DX009 (ip), vehicle: Klucel (hydroxypropylcellulose) (HPC)) is 117 % of control; the T/C under setting [2] is 108 % of control; the T/C under setting [3] was 100 % of control; the T/C (dose: 150.0 mg/kg/injection, schedule: Q01DX009 (ip), vehicle: Klucel (hydroxypropylcellulose) (HPC)) is 93 % of control; the T/C under setting [5] is 106 % of control; the T/C under setting [6] is 103 % of control. In addition, the T/C (dose: 300.0 mg/kg/injection, schedule: Q01DX009 (ip), vehicle: Klucel (hydroxypropylcellulose) (HPC)) was 96 % of control and the T/C under setting [7] was 92 % of control.
Consider `COc1ccc(C(C)N=CC(C)(C)C)cc1` (centres undefined), for which the T/C runs as follows: under setting [10], 101 % of control; under setting [11], 101 % of control.
Turning to `CCC(C)C(=Nc1ccc(Cl)c(Cl)c1)N(C)C` (centres undefined), the T/C by setting is: (dose: 55.0 mg/kg/injection, schedule: Q01DX Z (ip), vehicle: methylcellulose (MC)) 102 % of control; (dose: 83.0 mg/kg/injection, schedule: Q01DX Z (ip), vehicle: methylcellulose (MC)) 96 % of control; (dose: 125.0 mg/kg/injection, schedule: Q01DX Z (ip), vehicle: methylcellulose (MC)) 104 % of control.
Consider `Cc1cc(=O)n2c3c(ccc([N+](=O)[O-])c13)OC2`, for which the T/C was 104 % of control (dose: 100.0 mg/kg/injection, schedule: Q01DX001 (ip), vehicle: saline); 99 % of control (dose: 200.0 mg/kg/injection, schedule: Q01DX001 (ip), vehicle: saline); 95 % of control (dose: 400.0 mg/kg/injection, schedule: Q01DX001 (ip), vehicle: saline).
For `c1ccc(NNC(c2ccccc2)(c2ccccc2)c2ccccc2)cc1`, the T/C reads like this: under setting [8], 101 % of control; under setting [17], 101 % of control; under setting [9], 98 % of control; under setting [18], 95 % of control; (dose: 400.0 mg/kg/injection, schedule: Q01DX009 (ip), vehicle: Klucel (hydroxypropylcellulose) (HPC)) 92 % of control; under setting [19], 95 % of control.
As for `ClCC[N-]CC[N-]CCCl.[Cl][Pt+2][Cl]`, the T/C is 113 % of control (dose: 100.0 mg/kg/injection, schedule: Q01DX001 (ip), vehicle: Klucel (hydroxypropylcellulose) (HPC)); 107 % of control (dose: 200.0 mg/kg/injection, schedule: Q01DX001 (ip), vehicle: Klucel (hydroxypropylcellulose) (HPC)); 104 % of control under setting [18]; 88 % of control under setting [19].
With `CC(C)(C)NC(c1ccccc1)C(NC(C)(C)C)c1ccccc1` (centres undefined), the T/C (dose: 50.0 mg/kg/injection, schedule: Q01DX001 (ip), vehicle: saline with Tween-80) was 91 % of control; the T/C under setting [1] is 91 % of control; the T/C under setting [4] is 94 % of control.

Values taken from PubChem BioAssay AID248 (DTP/NCI, 2004).
